Laboratory results taken from patent US7172862B2, “FBL2-specific agents as modulators of Flaviviridae RNA replication” (Board of Regents, The University of Texas System, priority 2005, dated 2007).
Substitutions are numbered along the chain they refer to. Numbers in names are those of the source.

Key:
HCV RNA replication = settings: cited from earlier work; for overcoming of the inhibition of HCV RNA replication by lovastatin: added with lovastatin
mutant FBL2(C420S) = assay: Subcellular fractionation (cytosol/membrane) and immunoblot of transfected mutant FBL2(C420S) in CHO-7 cells; assay type: cell-based; settings: CHO-7 cells transfected with Myc-tagged FBL2(C420S)
Experimental: (§1) Since prenylation of proteins normally facilitates their membrane association, we compared the localization of wild-type FBL2 and the mutant FBL2 that cannot be prenylated. CHO-7 cells transfected with a plasmid encoding NH2-terminal Myc-tagged wild-type FBL2 or mutant FBL2(C420S) were treated either with GGTI-286, a drug that inhibits both geranylgeranylation and farnesylation, or with FPTI-III, a drug that inhibits only farnesylation (Ye et al., 2003). Cells were fractionated into cytosol and membrane fractions, and immunoblotted with monoclonal anti-Myc IgG-9E10.

wild-type FBL2 = assay: Subcellular fractionation (cytosol/membrane) and immunoblot of transfected wild-type FBL2 in CHO-7 cells; assay type: cell-based; settings: CHO-7 cells transfected with Myc-tagged wild-type FBL2; immunoblot anti-Myc
Experimental: as §1

HCV RNA = HCV RNA level / replication in Huh7-HP replicon cells; assay type: cell-based; settings: drug treatment
From the text: Further evidence that FBL2 is required for HCV RNA replication was obtained in experiments in which the level of FBL2 mRNA was reduced by transfection with duplex siRNA. An siRNA sequence targeting human FBL2 and having a sequence corresponding to positions 40-60 relative to the first nucleotide start codon, was transfected into Huh7-HP cells with TransMessenger transfection reagent (Qiagen) according to the manufacturer's protocol. […] We confirmed that these cells resemble the other HCV replicon cell lines in that HCV replication is inhibited by treatment with lovastatin (Ye et al., 2003) or an inhibitor of GGTase-I, GGTI-286. The NS5A derived from these cells interacts with FBL2. siRNA targeting FBL2 was and produced a 70% knockdown of FBL2 mRNA, an effect that was not observed when the cells were treated with a control siRNA containing 6 mismatched nucleotides.

HCV RNA replicon = assay: HCV RNA level in Huh7-K2040 replicon cells after transfection of FBL2 plasmids; assay type: cell-based; settings: at least 80% of cells transfected
From the text: FBL2(67-423), which lacks an F-box, is likely to be nonfunctional, yet it still binds to NS5A. We therefore considered the possibility that overexpression of FBL2(67-423) may inhibit HCV RNA replication in a dominant-negative fashion by sequestering NS5A and preventing it from interacting with endogenous functional FBL2. To test this hypothesis, we transfected plasmids encoding wild-type and various mutant versions of FBL2 into Huh7-K2040 cells that harbor the HCV RNA replicon. As described above, we included only those experiments in which at least 80% of the cells were transfected. […] Importantly, transfected FBL2(67-423; C420S), which cannot bind to NS5A, had no effect on HCV RNA levels.

NS5A = settings: Huh7 cells; anti-Flag pull-down of NS5A, anti-Myc blot
From the text: To determine the components of FBL2 that are required for interaction with the NH2-terminal half of NS5A, we made plasmids encoding the following proteins: NH2-terminal Myc-tagged wild-type FBL2, FBL2 with its CAAX box mutated so that it cannot be geranylgeranylated (C420S), FBL2 with its NH2-terminal F-box deleted (FBL2(67-423)), and FBL2 with both its F-box deleted and its CAAX box mutated (FBL2 67-423, C420S). These plasmids were transfected into Huh7 cells together with a plasmid encoding Flag and HA-tagged NS5A. Cell extracts were immunoprecipitated with anti-Flag beads to pull down NS5A and blotted with anti-HA and anti-Myc for detection of transfected NS5A and FBL2, respectively.

West Nile virus replicon = West Nile virus replicon RNA level in Huh7-WNV-2 cells after transfection of FBL2 plasmids; assay type: cell-based; settings: conditions reducing HCV RNA by 75%

CC(C)=CCC/C(C)=C/CC/C(C)=C/CC/C(C)=C/CO [geranylgeraniol]
overcoming of the inhibition of HCV RNA replication by lovastatin (HCV RNA replication): overcome

COC(=O)[C@H](CC(C)C)NC(=O)c1ccc(NC[C@@H](N)CS)cc1-c1ccccc1 [GGTI-286]
subcellular localization of the mutant FBL2 that lacks a CAAX motif (mutant FBL2(C420S)): did not change | localization of wild-type FBL2 in cytosol and membrane fractions (wild-type FBL2): distributed equally in cytosol and membrane fractions | HCV replication (HCV RNA): inhibited

CC(C)=CCCC(C)=CCCC(C)=CCO [farnesol]
overcoming of the inhibition of HCV RNA replication by lovastatin (HCV RNA replication): not

FPTI-III
localization of wild-type FBL2 in cytosol and membrane fractions (wild-type FBL2): not

CC[C@H](C)C(=O)O[C@H]1C[C@@H](C)C=C2C=C[C@H](C)[C@H](CC[C@@H]3C[C@@H](O)CC(=O)O3)[C@H]21 [lovastatin]
HCV RNA replication (HCV RNA replication; Huh7 cells): disrupted | HCV replication (HCV RNA): inhibited

B1: FBL2(100-423): alternative FBL2 N-terminal truncation (protein, UniProt Q9UKC9 100-423, looked up, fragment)
chain: AQNCRNIEHLNLNGCTKITDSTCYSLSRFCSKLKHLDLTSCVSITNSSLKGISEGCRNLEYLNLSWCDQITKDGIEALVRGCRGLKALLLRGCTQLEDEALKHIQNYCHELVSLNLQSCSRITDEGVVQICRGCHRLQALCLSGCSNLTDASLTALGLNCPRLQILEAARCSHLTDAGFTLLARNCHELEKMDLEECILITDSTLIQLSIHCPKLQALSLSHCELITDDGILHLSNSTCGHERLRVLELDNCLLITDVALEHLENCRGLERLELYDCQQVTRAGIKRMRAQLPHVKVHAYFAPVTPPTAVAGSGQRLCRCCVIL
reduction of the level of HCV RNA (HCV RNA replicon): dominant-negative affects

B2: FBL2(67-423): FBL2 with its NH2-terminal F-box deleted; dominant-negative for HCV RNA replication (protein, UniProt Q9UKC9 67-423, looked up, fragment)
chain: RVVENISKRCGGFLRKLSLRGCIGVGDSSLKTFAQNCRNIEHLNLNGCTKITDSTCYSLSRFCSKLKHLDLTSCVSITNSSLKGISEGCRNLEYLNLSWCDQITKDGIEALVRGCRGLKALLLRGCTQLEDEALKHIQNYCHELVSLNLQSCSRITDEGVVQICRGCHRLQALCLSGCSNLTDASLTALGLNCPRLQILEAARCSHLTDAGFTLLARNCHELEKMDLEECILITDSTLIQLSIHCPKLQALSLSHCELITDDGILHLSNSTCGHERLRVLELDNCLLITDVALEHLENCRGLERLELYDCQQVTRAGIKRMRAQLPHVKVHAYFAPVTPPTAVAGSGQRLCRCCVIL
co-precipitation with NS5A (NS5A): co-precipitated | change in the level of West Nile virus replicon RNA (West Nile virus replicon): no significant change

B3: FBL2(67-423; C420S): FBL2 with both its F-box deleted and its CAAX box mutated (protein, UniProt Q9UKC9 67-423, looked up, fragment C420S)
chain: B2 chain with C354S
reduction of the level of HCV RNA (HCV RNA replicon): no effect | co-precipitation with NS5A (NS5A): abrogated binding

B4: FBL2(50-423): alternative FBL2 N-terminal truncation (protein, UniProt Q9UKC9 50-423, looked up, fragment)
chain: SNWQRIDLFNFQTDVEGRVVENISKRCGGFLRKLSLRGCIGVGDSSLKTFAQNCRNIEHLNLNGCTKITDSTCYSLSRFCSKLKHLDLTSCVSITNSSLKGISEGCRNLEYLNLSWCDQITKDGIEALVRGCRGLKALLLRGCTQLEDEALKHIQNYCHELVSLNLQSCSRITDEGVVQICRGCHRLQALCLSGCSNLTDASLTALGLNCPRLQILEAARCSHLTDAGFTLLARNCHELEKMDLEECILITDSTLIQLSIHCPKLQALSLSHCELITDDGILHLSNSTCGHERLRVLELDNCLLITDVALEHLENCRGLERLELYDCQQVTRAGIKRMRAQLPHVKVHAYFAPVTPPTAVAGSGQRLCRCCVIL
reduction of the level of HCV RNA (HCV RNA replicon): dominant-negative affects

B5: wild-type FBL2: NH2-terminal Myc-tagged wild-type FBL2 expressed from a transfected plasmid (protein, UniProt Q9UKC9 1-423, looked up)
F-box/LRR-repeat protein 2: MVFSNNDEGLINKKLPKELLLRIFSFLDIVTLCRCAQISKAWNILALDGSNWQRIDLFNFQTDVEGRVVENISKRCGGFLRKLSLRGCIGVGDSSLKTFAQNCRNIEHLNLNGCTKITDSTCYSLSRFCSKLKHLDLTSCVSITNSSLKGISEGCRNLEYLNLSWCDQITKDGIEALVRGCRGLKALLLRGCTQLEDEALKHIQNYCHELVSLNLQSCSRITDEGVVQICRGCHRLQALCLSGCSNLTDASLTALGLNCPRLQILEAARCSHLTDAGFTLLARNCHELEKMDLEECILITDSTLIQLSIHCPKLQALSLSHCELITDDGILHLSNSTCGHERLRVLELDNCLLITDVALEHLENCRGLERLELYDCQQVTRAGIKRMRAQLPHVKVHAYFAPVTPPTAVAGSGQRLCRCCVIL
modifications: N-terminal Myc tag
notes: NH2-terminal Myc-tagged wild-type FBL2 expressed from a transfected plasmid
reduction of the level of HCV RNA (HCV RNA replicon): did not change | co-precipitation with NS5A (NS5A): co-precipitated
